# Read-outs that look alike come from different tables or passages of the source. *1 amine or outer side, *2 acyl side, *3 side chain or, on linkers, in order; H or OH if unused. Where a SMILES comes first, the peptide text is derived from it. Bridges are numbered along the chain shown (N, C = ends). [ ]: non-standard residue; d: D form. The star is where a group is joined. hPhe(3-Cl-4-CF3) = N[C@@H](CCc1ccc(C(F)(F)F)c(Cl)c1)C(=O)O; X45 = O=C([C@H](Cc1ccc(C(F)(F)F)cc1)N(CCCF)[*:1])[*:2]; NPrPhe(4-CF3) = CCCN[C@@H](Cc1ccc(C(F)(F)F)cc1)C(=O)O; X30 = C=CCCN([C@@H](Cc1ccc(C)cc1)C(=O)[*:2])[*:1]; NMeGly(cPent) = CN[C@H](C(=O)O)C1CCCC1; Pro(4,4-F2) = O=C(O)[C@@H]1CC(F)(F)CN1; Hyp = O=C(O)[C@@H]1C[C@@H](O)CN1; NMeD = CN[C@@H](CC(=O)O)C(=O)O; NMeL = CN[C@@H](CC(C)C)C(=O)O; NMeNva = CCC[C@H](NC)C(=O)O; NMeAbu = CC[C@H](NC)C(=O)O; Morpholide = C1CN(*)CCO1; NMeA = CN[C@@H](C)C(=O)O; Ac5c = NC1(C(=O)O)CCCC1; Aze = O=C(O)[C@@H]1CCN1; Sar = CNCC(=O)O
# Columns and labels:
# [1] = biological target: GDP-bound KRAS wild-type protein (Homo sapiens, UniProt P01116); assay: Binding to KRAS by surface plasmon resonance (SPR), Single Cycle Kinetics; settings: GDP-bound KRAS wild-type protein, read-out: KRAS KD
# [2] = biological target: GDP-bound NRAS wild-type protein (Homo sapiens, UniProt P01111); assay: Binding to NRAS by surface plasmon resonance (SPR), Single Cycle Kinetics; settings: for NRAS/KRAS (ratio of KD value with respect to NRAS to KD value with respect to KRAS) / NRAS/KRAS (ratio of KD value for NRAS to KD value for KRAS): SPR, GDP-bound NRAS wild-type protein vs GDP-bound KRAS wild-type protein; for NRAS/KRAS (ratio of KD value with respect to GDP-bound NRAS wild-type protein to KD value with respect to KRAS): SPR KD ratio NRAS/KRAS, class symbols
# [3] = biological target: GDP-bound HRAS wild-type protein (Homo sapiens, UniProt P01112); assay: Binding to HRAS by surface plasmon resonance (SPR), Single Cycle Kinetics; settings: for HRAS/KRAS (ratio of KD value with respect to HRAS to KD value with respect to KRAS) / HRAS/KRAS (ratio of KD value for HRAS to KD value for KRAS): SPR, GDP-bound HRAS wild-type protein vs GDP-bound KRAS wild-type protein; for HRAS/KRAS (ratio of KD value with respect to GDP-bound HRAS wild-type protein to KD value with respect to KRAS): SPR KD ratio HRAS/KRAS, class symbols
# [4] = SPR Single Cycle Kinetics, 1:1 binding model
# Chain of GDP-bound HRAS wild-type protein (P01112 whole entry): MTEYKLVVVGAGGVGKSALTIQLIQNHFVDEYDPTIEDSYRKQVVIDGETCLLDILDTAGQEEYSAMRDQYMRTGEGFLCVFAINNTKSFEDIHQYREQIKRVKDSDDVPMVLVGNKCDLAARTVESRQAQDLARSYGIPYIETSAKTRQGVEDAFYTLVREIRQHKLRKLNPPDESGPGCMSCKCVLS
# Chain of GDP-bound KRAS wild-type protein (P01116 whole entry): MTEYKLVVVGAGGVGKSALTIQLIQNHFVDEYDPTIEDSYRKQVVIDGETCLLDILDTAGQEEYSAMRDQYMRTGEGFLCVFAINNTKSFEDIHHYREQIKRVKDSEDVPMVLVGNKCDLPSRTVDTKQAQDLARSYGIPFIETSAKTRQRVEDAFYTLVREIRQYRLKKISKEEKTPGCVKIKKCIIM
# Chain of GDP-bound NRAS wild-type protein (P01111 whole entry): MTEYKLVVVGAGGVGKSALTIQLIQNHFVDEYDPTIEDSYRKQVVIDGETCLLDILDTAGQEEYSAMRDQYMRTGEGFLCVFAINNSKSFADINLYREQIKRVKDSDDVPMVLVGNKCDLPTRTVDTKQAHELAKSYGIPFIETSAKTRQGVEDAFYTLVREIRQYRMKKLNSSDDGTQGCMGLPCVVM
SMILES,"Kd [1, 4] [nM]",NRAS/KRAS (ratio of KD value with respect to NRAS to KD value with respect to KRAS) [2],HRAS/KRAS (ratio of KD value with respect to HRAS to KD value with respect to KRAS) [3],NRAS/KRAS (ratio of KD value for NRAS to KD value for KRAS) [2],HRAS/KRAS (ratio of KD value for HRAS to KD value for KRAS) [3],NRAS/KRAS (ratio of KD value with respect to GDP-bound NRAS wild-type protein to KD value with respect to KRAS) [2],HRAS/KRAS (ratio of KD value with respect to GDP-bound HRAS wild-type protein to KD value with respect to KRAS) [3],"Kd ([1]; SPR, Single Cycle Kinetics) [nM]"
CC[C@H](C)[C@@H]1NC(=O)[C@H](CC(C)C)N(C)C(=O)C[C@@H](C(=O)N2CCOCC2)N(C)C(=O)[C@H](C2CCCC2)N(C)C(=O)C2(CCCC2)NC(=O)[C@@H]2CCCN2C(=O)[C@H](CCc2ccc(C(F)(F)F)c(Cl)c2)NC(=O)CN(C)C(=O)[C@H](Cc2ccc(C(F)(F)F)cc2)N(CCCF)C(=O)[C@@H]2CCN2C(=O)[C@H](C)N(C)C1=O [PP0525] ([NMeL]I[NMeA][Aze][X45][Sar][hPhe(3-Cl-4-CF3)]P[Ac5c][NMeGly(cPent)][NMeD]-Morpholide; lactam N-11),0.14,C (A compound having a KD ratio of 0.1 or more and less than 3 is denoted as C),B (a compound having 3 or more and less than 10 is denoted as B),,,,,
CCCN1C(=O)[C@@H]2CCN2C(=O)[C@H](C)N(C)C(=O)[C@H]([C@@H](C)CC)NC(=O)[C@H](CC(C)C)N(C)C(=O)C[C@@H](C(=O)N(C)C)NC(=O)[C@H](C2CCCC2)N(C)C(=O)C2(CCCC2)NC(=O)[C@@H]2C[C@@H](OCC)CN2C(=O)[C@H](CCc2ccc(C(F)(F)F)c(Cl)c2)NC(=O)CN(C)C(=O)[C@@H]1Cc1ccc(C(F)(F)F)cc1 [PP0383] ([NMeL]I[NMeA][Aze][NPrPhe(4-CF3)][Sar][hPhe(3-Cl-4-CF3)][Hyp](Et)[Ac5c][NMeGly(cPent)]D-NMe2; lactam N-11),0.24,,,C (A compound having a KD ratio of 0.1 or more and less than 3 is denoted as C),B (a compound having 3 or more and less than 10 is denoted as B),,,
CCC[C@H]1C(=O)N[C@@H]([C@@H](C)CC)C(=O)N(C)CC(=O)N(C)[C@H]2C/C=C\CCN(C2=O)[C@@H](Cc2ccc(C(F)(F)F)cc2)C(=O)N(C)CC(=O)N[C@@H](CCc2cc(Cl)c3sccc3c2)C(=O)N2C[C@H](OCC)C[C@H]2C(=O)NC2(CC(C)(C)C2)C(=O)N(C)[C@@H](C2CCCC2)C(=O)N(C)[C@H](C(=O)N(C)C)CC(=O)N1C [PP2946],0.052,,,,,A (a compound having 10 or more and less than 20 is denoted as A),A (a compound having 10 or more and less than 20 is denoted as A),
"CCC[C@H]1C(=O)N[C@@H]([C@@H](C)CC)C(=O)N(C)[C@@H](C)C(=O)N2CC[C@H]2C(=O)N(CCC)[C@@H](Cc2ccc(C(F)(F)F)cc2)C(=O)N(C)CC(=O)N[C@@H](CCc2ccc(C(F)(F)F)c(Cl)c2)C(=O)N2CC(F)(F)C[C@H]2C(=O)NC2(CCCC2)C(=O)N(C)[C@@H](C2CCCC2)C(=O)N(C)[C@H](C(=O)N2CCOCC2)CC(=O)N1C [PP0205] ([NMeNva]I[NMeA][Aze][NPrPhe(4-CF3)][Sar][hPhe(3-Cl-4-CF3)][Pro(4,4-F2)][Ac5c][NMeGly(cPent)][NMeD]-Morpholide; lactam N-11)",0.11,,,C (A compound having a KD ratio of 0.1 or more and less than 3 is denoted as C),C (A compound having a KD ratio of 0.1 or more and less than 3 is denoted as C),,,
CCC[C@H]1C(=O)N[C@@H]([C@@H](C)CC)C(=O)N(C)CC(=O)N(C)[C@H]2C/C=C\CCN(C2=O)[C@@H](Cc2ccc(C)cc2)C(=O)N(C)CC(=O)N[C@@H](CCc2ccc(Cl)c(Cl)c2)C(=O)N2CCCCC[C@H]2C(=O)NC2(CC(C)(C)C2)C(=O)N(C)[C@@H](C(CC)CC)C(=O)N(C)[C@H](C(=O)N(C)C)CC(=O)N1C [PP2962],1.2,,,,,AA (a compound having 20 or more is denoted as AA),A (a compound having 10 or more and less than 20 is denoted as A),
CCC[C@H]1C(=O)N[C@@H]([C@@H](C)CC)C(=O)N(C2CC2)CC(=O)N(C)[C@H]2C/C=C\CCN(C2=O)[C@@H](Cc2ccc(C(F)(F)F)cc2)C(=O)N(C)CC(=O)N[C@@H](CCc2ccc(C(F)(F)F)c(OC)c2)C(=O)N2C[C@H](OCC)C[C@H]2C(=O)N(C)C2(CCC2)C(=O)N(C)[C@@H](C(CC)CC)C(=O)N(C)[C@H](C(=O)N(C)C)CC(=O)N1C [PP2313],,,,AA (a compound having 20 or more is denoted as AA),A (a compound having 10 or more and less than 20 is denoted as A),,,0.49
CCO[C@@H]1C[C@H]2C(=O)NC3(CC(C)(C)C3)C(=O)N(C)[C@@H](C(CC)CC)C(=O)N(C)[C@H](C(=O)N(C)C)CC(=O)N(C)[C@@H](CC3CC3)C(=O)N[C@@H]([C@@H](C)CC)C(=O)N(C)CC(=O)N(C)[C@H]3C/C=C\CCN(C3=O)[C@@H](Cc3ccc(C)cc3)C(=O)N(C)CC(=O)N[C@@H](CCc3cc(F)c(C(F)(F)F)c(F)c3)C(=O)N2C1 [PP2137],,,,A (a compound having 10 or more and less than 20 is denoted as A),A (a compound having 10 or more and less than 20 is denoted as A),,,0.37
CC[C@H](C)[C@@H]1NC(=O)[C@H](CC(C)C)N(C)C(=O)C[C@@H](C(=O)N(C)C)N(C)C(=O)[C@H](C2CCCC2)N(C)C(=O)C2(CCCC2)NC(=O)[C@@H]2CC(F)(F)CN2C(=O)[C@H](CCc2cc(F)c(C(F)(F)F)c(F)c2)NC(=O)CN(C)C(=O)[C@H](Cc2ccc(C(F)(F)F)cc2)N2CCCCC[C@@H](C2=O)N(C)C(=O)CN(C)C1=O [PP0465],0.51,B (a compound having 3 or more and less than 10 is denoted as B),B (a compound having 3 or more and less than 10 is denoted as B),,,,,
C=CCCN1C(=O)CN(C)C(=O)CN(C)C(=O)[C@H]([C@@H](C)CC)NC(=O)[C@H](CC(C)C)N(C)C(=O)C[C@@H](C(=O)N2CCOCC2)N(C)C(=O)[C@H](C2CCCC2)N(C)C(=O)C2(CCCC2)NC(=O)[C@@H]2CCCN2C(=O)[C@H](CCc2ccc(C(F)(F)F)c(Cl)c2)NC(=O)CN(C)C(=O)[C@@H]1Cc1ccc(C)cc1 [PP0101] ([NMeL]I[Sar][Sar][X30][Sar][hPhe(3-Cl-4-CF3)]P[Ac5c][NMeGly(cPent)][NMeD]-Morpholide; lactam N-11),0.16,,,B (a compound having 3 or more and less than 10 is denoted as B),C (A compound having a KD ratio of 0.1 or more and less than 3 is denoted as C),,,
CCCN1C(=O)CN(C)C(=O)CN(C)C(=O)[C@H]([C@@H](C)CC)NC(=O)[C@H](CC)N(C)C(=O)C[C@@H](C(=O)N2CCOCC2)N(C)C(=O)[C@H](C2CCCC2)N(C)C(=O)C2(CCCC2)NC(=O)[C@@H]2CCCN2C(=O)[C@H](CCc2ccc(C(F)(F)F)c(Cl)c2)NC(=O)CN(C)C(=O)[C@@H]1Cc1ccc(C(F)(F)F)cc1 [PP0190] ([NMeAbu]I[Sar][Sar][NPrPhe(4-CF3)][Sar][hPhe(3-Cl-4-CF3)]P[Ac5c][NMeGly(cPent)][NMeD]-Morpholide; lactam N-11),0.13,,,B (a compound having 3 or more and less than 10 is denoted as B),B (a compound having 3 or more and less than 10 is denoted as B),,,
CCO[C@@H]1C[C@H]2C(=O)NC3(CCCC3)C(=O)N(C)[C@@H](C3CCCC3)C(=O)N(C)[C@H](C(=O)N3CCOCC3)CC(=O)N(C)[C@@H](CC(C)C)C(=O)N[C@@H]([C@@H](C)CC)C(=O)N(C)CC(=O)N(C)[C@H]3CCCCN(C3=O)[C@@H](Cc3ccc(C(F)(F)F)cc3)C(=O)N(C)CC(=O)N[C@@H](CCc3cc(F)c(C(F)(F)F)c(F)c3)C(=O)N2C1 [PP0554],0.036,B (a compound having 3 or more and less than 10 is denoted as B),B (a compound having 3 or more and less than 10 is denoted as B),,,,,
CCC[C@H]1C(=O)N[C@@H]([C@@H](C)CC)C(=O)N(C2CC2)CC(=O)N(C)[C@H]2C/C=C\CCN(C2=O)[C@@H](Cc2ccc(C(F)(F)F)cc2)C(=O)N(C)CC(=O)N[C@@H](CCc2cc(F)c(C(F)(F)F)c(F)c2)C(=O)N2C[C@H](OCC)C[C@H]2C(=O)NC2(CC(C)(C)C2)C(=O)N(C)[C@@H](C2CCCC2)C(=O)N(C)[C@H](C(=O)N(C)C)CC(=O)N1C [PP2101],,,,A (a compound having 10 or more and less than 20 is denoted as A),B (a compound having 3 or more and less than 10 is denoted as B),,,0.32
CCCC[C@H]1C(=O)N[C@@H]([C@@H](C)CC)C(=O)N(C)CC(=O)N(C)[C@H]2C/C=C\CCN(C2=O)[C@@H](Cc2ccc(C)cc2)C(=O)N(C)CC(=O)N[C@@H](CCc2cc(F)c(C(F)(F)F)c(F)c2)C(=O)N2C[C@H](OCC)C[C@H]2C(=O)NC2(CCC2)C(=O)N(C)[C@@H](C2CCCC2)C(=O)N(C)[C@H](C(=O)N(C)C)CC(=O)N1C [PP2798],0.075,,,,,A (a compound having 10 or more and less than 20 is denoted as A),A (a compound having 10 or more and less than 20 is denoted as A),

# From patent US20240158446A1, “CYCLIC COMPOUND HAVING SELECTIVE INHIBITORY ACTION ON KRAS OVER HRAS AND NRAS” (CHUGAI SEIYAKU KABUSHIKI KAISHA, priority 2021, published 2024)
